Each structure is given as a SMILES string.

One data set deals with SNL L5/L6 rats. As to the kind of experiment: L5/L6 spinal nerve ligation (SNL) Chung pain model, tactile allodynia (von Frey). The class given is in vivo, rat. Particulars: for Rat SNL tactile allodynia, anti-allodynia (statement): compared to baseline and post-SNL. From the text: The Spinal Nerve Ligation is an animal model representing peripheral nerve injury generating a neuropathic pain syndrome. In this model experimental animals develop the clinical symptoms of tactile allodynia and hyperalgesia. L5/L6 Spinal nerve ligation (SNL) injury was induced using the procedure of Kim and Chung (Kim et al., Pain 50:355-363 (1992)) in male Sprague-Dawley rats (Harlan; Indianapolis, Ind.) weighing 200 to 250 grams.
Anaesthesia was induced with 2% isofluorane in O2 at 2 L/min and maintained with 0.5% isofluorane in O2. Rats were then shaved and aseptically prepared for surgeries. A 2 cm paraspinal incision was made at the level of L4-S2. L4/L5 was exposed by removing the transverse process above the nerves with a small rongeur. The L5 spinal nerve is the larger of the two visible nerves below the transverse process and lies closest to the spine. The L6 spinal nerve is located beneath the corner of the slope bone. A home-made glass Chung rod was used to hook L5 or L6 and a pre-made slip knot of 4.0 silk suture was placed on the tip of the rod just above the nerve and pulled underneath to allow for the tight ligation. The L5 and L6 spinal nerves were tightly ligated distal to the dorsal root ganglion. The incision was closed, and the animals were allowed to recover for 5 days.
Sham control rats underwent the same operation and handling as the experimental animals, but without SNL.
Prior to initiating drug delivery, baseline behavioural testing data is obtained. At selected times after infusion of the Test or Control Article behavioural data can then be collected again.
The assessment of tactile allodynia consisted of measuring the withdrawal threshold of the paw ipsilateral to the site of nerve injury in response to probing with a series of calibrated von Frey filaments (innocuous stimuli). Animals were acclimated to the suspended wire-mesh cages for 30 min before testing. Each von Frey filament was applied perpendicularly to the plantar surface of the ligated paw of rats for 5 sec. A positive response was indicated by a sharp withdrawal of the paw. For rats, the first testing filament is 4.31. Measurements were taken before and after administration of test articles. […] The protocol was repeated until three changes in behaviour were determined (“up and down” method) (Chaplan et al., J. Neurosci. Methods 53:55-63 (1994)). The 50% paw withdrawal threshold was determined as (10^[Xf+kδ])/10,000, where Xf=the value of the last von Frey filament employed, k=Dixon value for the positive/negative pattern, and δ=the logarithmic difference between stimuli. The cut-off values for rats were no less than 0.2 g and no higher than 15 g (5.18 filament); for mice no less than 0.03 g and no higher than 2.34 g (4.56 filament). A significant drop of the paw withdrawal threshold compared to the pre-treatment baseline is considered tactile allodynia.
Rat SNL tactile allodynia were tested for Compounds 1-4 and 9-12 at 60 minutes compared to baseline and post-SNL. […] FIG. 1 is a plot of the antiallodynic effects of compound 4 (i.p.) tested in SNL L5/L6 rats using von Frey at three different doses, namely 3, 10 and 30 mpk, compared to vehicle alone. […] Rat SNL tactile allodynia were tested at 1, 2 and 4 hours after drug treatment (Table 6).

Data set [1] can be described thus: Rat Early Pharmacokinetic (EPK) study. The class given is in vivo. Particulars: 30 mg/kg PO, 0.5% CMC; for Tmax: male, Sprague-Dawley, blood. As to the method:
Male Sprague-Dawley rats were dosed via oral (PO) gavage in the detailed formulation. Blood samples were collected from the animals at 6 timepoints out to 4 hours post-dose. Pharmacokinetic analysis was performed on the LC-MS/MS measured concentrations for each timepoint of each compound.

Data set [2] has as its target T1, Nav1.7 channels expressed in HEK cells (Homo sapiens, UniProt Q15858).
T1 construct: expressed in transfected cells; host or cells: HEK cells
In words: Nav1.7 voltage-clamp electrophysiological assay (enhancement of slow inactivation). Particulars: n 5 cells. In kind it is cell-based. As to the method: To examine the effects of compounds on enhancement of slow inactivation of Nav1.7 and Nav1.8 channels expressed in HEK cells the culture media was replaced with an extracellular solution containing (in mM): 137 NaCl, 4 KCl, 1.8 CaCl2, 1 MgCl2, 10 HEPES, 10 glucose, pH adjusted to 7.4 with NaOH. The intracellular solution contained (in mM): 130 KCl, 1 MgCl2, 5 EGTA, 10 HEPES, 5 K2ATP, adjusted to pH 7.3 with KOH. Whole-cell recordings, preparation and application of test compounds were performed in a similar manner to the Cav3.2 electrophysiological assays. Voltage protocols were applied to quantify the effects of test compounds to enhance slow inactivation for Nav1.7 and Nav1.8.

T1 sequence (Q15858 whole entry): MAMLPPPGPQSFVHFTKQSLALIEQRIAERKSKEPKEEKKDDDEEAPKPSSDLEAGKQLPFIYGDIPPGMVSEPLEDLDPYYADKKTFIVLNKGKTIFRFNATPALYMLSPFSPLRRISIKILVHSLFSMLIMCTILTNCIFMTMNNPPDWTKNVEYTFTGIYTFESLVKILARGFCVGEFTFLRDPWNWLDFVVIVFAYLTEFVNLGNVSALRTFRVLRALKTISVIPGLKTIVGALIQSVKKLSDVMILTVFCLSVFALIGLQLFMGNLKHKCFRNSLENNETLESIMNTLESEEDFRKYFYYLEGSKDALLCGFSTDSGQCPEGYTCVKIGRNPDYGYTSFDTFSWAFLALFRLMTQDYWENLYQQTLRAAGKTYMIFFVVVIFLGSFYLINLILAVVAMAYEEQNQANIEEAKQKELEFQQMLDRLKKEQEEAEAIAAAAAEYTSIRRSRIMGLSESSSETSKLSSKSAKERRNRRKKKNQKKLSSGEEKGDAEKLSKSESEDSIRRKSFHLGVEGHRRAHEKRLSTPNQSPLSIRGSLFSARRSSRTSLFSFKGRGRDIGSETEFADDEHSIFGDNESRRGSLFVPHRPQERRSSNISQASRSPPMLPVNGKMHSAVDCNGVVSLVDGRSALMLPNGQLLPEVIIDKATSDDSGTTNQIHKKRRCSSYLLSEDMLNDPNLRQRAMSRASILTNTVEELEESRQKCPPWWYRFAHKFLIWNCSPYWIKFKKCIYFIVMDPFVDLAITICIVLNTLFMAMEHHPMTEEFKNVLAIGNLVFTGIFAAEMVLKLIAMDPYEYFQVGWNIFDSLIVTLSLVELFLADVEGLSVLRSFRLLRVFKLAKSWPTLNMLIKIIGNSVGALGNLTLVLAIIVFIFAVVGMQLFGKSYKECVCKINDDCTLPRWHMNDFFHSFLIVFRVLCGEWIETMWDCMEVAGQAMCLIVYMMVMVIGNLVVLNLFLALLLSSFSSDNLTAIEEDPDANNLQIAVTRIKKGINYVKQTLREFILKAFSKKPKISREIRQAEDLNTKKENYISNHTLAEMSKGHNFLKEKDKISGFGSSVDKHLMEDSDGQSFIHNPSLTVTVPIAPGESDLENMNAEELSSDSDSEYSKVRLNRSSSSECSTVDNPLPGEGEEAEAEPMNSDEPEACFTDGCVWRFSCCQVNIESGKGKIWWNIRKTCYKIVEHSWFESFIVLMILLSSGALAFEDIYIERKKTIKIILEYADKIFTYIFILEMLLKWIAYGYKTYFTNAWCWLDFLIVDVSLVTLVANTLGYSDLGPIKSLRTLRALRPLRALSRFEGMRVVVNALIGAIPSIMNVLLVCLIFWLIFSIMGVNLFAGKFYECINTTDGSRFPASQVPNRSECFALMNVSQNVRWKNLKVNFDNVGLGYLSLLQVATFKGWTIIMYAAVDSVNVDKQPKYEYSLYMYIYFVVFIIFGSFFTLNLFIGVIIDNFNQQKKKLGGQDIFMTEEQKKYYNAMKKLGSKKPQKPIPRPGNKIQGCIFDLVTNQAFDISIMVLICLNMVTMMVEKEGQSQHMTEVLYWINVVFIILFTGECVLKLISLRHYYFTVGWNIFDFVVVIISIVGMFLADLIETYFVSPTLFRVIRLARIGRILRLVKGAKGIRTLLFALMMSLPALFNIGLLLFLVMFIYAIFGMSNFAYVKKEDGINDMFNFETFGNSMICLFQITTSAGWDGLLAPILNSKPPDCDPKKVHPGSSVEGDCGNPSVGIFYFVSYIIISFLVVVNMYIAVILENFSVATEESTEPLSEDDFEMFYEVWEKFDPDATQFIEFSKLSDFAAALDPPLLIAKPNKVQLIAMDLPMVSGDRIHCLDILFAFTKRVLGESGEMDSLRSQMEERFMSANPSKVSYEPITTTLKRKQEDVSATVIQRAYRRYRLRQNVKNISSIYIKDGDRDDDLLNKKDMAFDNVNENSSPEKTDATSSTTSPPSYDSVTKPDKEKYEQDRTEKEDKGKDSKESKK

With `O=C1CN(C(=O)C(c2ccc(Cl)cc2)c2ccc(Cl)cc2)CCN1` [Compound 13, 4-(2,2-bis(4-chlorophenyl)acetyl)piperazin-2-one], the “Rat SNL tactile allodynia, anti-allodynia (statement)” value in the data set on SNL L5/L6 rats is “significant anti-allodynia”.

In the case of `O=C1CN(C(=O)C(c2ccccc2)c2ccccc2)CCN1` [Compound 7, 4-(2,2-diphenylacetyl)piperazin-2-one], the “Rat SNL Tactile Allodynia (% Antiallodynia)” value in the data set on SNL L5/L6 rats (1 hour after drug treatment) came to 10%; with SNL L5/L6 rats (2 hours after drug treatment), 9%; in the data set with SNL L5/L6 rats (4 hours after drug treatment), 14%. For the same compound, in data set [1], the “Dose Normalized AUC” value was found to be 1087 nM·h. Further, the “Dose Normalized Cmax” value in data set [1] is on record as 730 nM. Moreover, the Tmax (usually the time at which the peak concentration occurs) in data set [1] is 30 min.

`O=C1CN(C(=O)C=C(c2ccccc2)c2ccccc2)CCN1` [Compound 8, 4-(3,3-diphenylacryloyl)piperazin-2-one]: the figures for the “Rat SNL Tactile Allodynia (% Antiallodynia)” value with SNL L5/L6 rats (1 hour after drug treatment), with SNL L5/L6 rats (2 hours after drug treatment) and in the data set with SNL L5/L6 rats (4 hours after drug treatment) were 17%, 24% and 17%, respectively. Also, the “Dose Normalized AUC” value in data set [1] is 185 nM·h. The “Dose Normalized Cmax” value in data set [1] is given as 132 nM. In data set [1], the Tmax amounted to 40.2 min.

For `O=C1CN(C(=O)CC(c2ccc(F)cc2)c2ccc(F)cc2)CCN1` [Compound 9, 4-(3,3-bis(4-fluorophenyl)propanoyl)piperazin-2-one], the Fraction current remaining in data set [2] (concentration tested 10 μM) is listed as 0.93; in data set [2] (concentration tested 100 μM), 0.86. Moreover, the “Rat SNL Tactile Allodynia (% Antiallodynia)” value is 7% in the data set with SNL L5/L6 rats (1 hour after drug treatment), 10% with SNL L5/L6 rats (2 hours after drug treatment) and 7% in the data set with SNL L5/L6 rats (4 hours after drug treatment). Moreover, the “Rat SNL tactile allodynia, anti-allodynia (statement)” value in the data set with SNL L5/L6 rats is listed as “significant anti-allodynia”.

For `O=C1CN(C(=O)C[S+]([O-])C(c2ccccc2)c2ccccc2)CCN1` (centres unmarked) [Compound 2, 4-(2-(benzhydrylsulfinyl)acetyl)piperazin-2-one], in data set [1], the “Dose Normalized AUC” value is 283 nM·h, the “Dose Normalized Cmax” value is reported as 182 nM and the Tmax stood at 30 min.

Consider `CC1(C)C(=O)NCCN1C(=O)CC(c1ccc(F)cc1)c1ccc(F)cc1` [Compound 15, 4-(3,3-bis(4-fluorophenyl)propanoyl)-3,3-dimethylpiperazin-2-one], for which the “Rat SNL Tactile Allodynia (% Antiallodynia)” value came out at 11% in the data set on SNL L5/L6 rats (1 hour after drug treatment), 8% in the data set with SNL L5/L6 rats (2 hours after drug treatment) and 15% in the data set with SNL L5/L6 rats (4 hours after drug treatment).

In the case of `O=C1CN(C(=O)NC(c2ccccc2)c2ccccc2)CCN1` [Compound 1, N-benzhydryl-3-oxopiperazine-1-carboxamide], the “Rat SNL Tactile Allodynia (% Antiallodynia)” value in the data set on SNL L5/L6 rats (1 hour after drug treatment) is given as 10%. In the data set on SNL L5/L6 rats (2 hours after drug treatment), the “Rat SNL Tactile Allodynia (% Antiallodynia)” value is recorded as 19%. The “Rat SNL Tactile Allodynia (% Antiallodynia)” value with SNL L5/L6 rats (4 hours after drug treatment) was 26%. Also, the “Rat SNL tactile allodynia, anti-allodynia (statement)” value with SNL L5/L6 rats was “significant anti-allodynia”. Besides, in data set [1], the “Dose Normalized AUC” value turned out to be 993 nM·h, the “Dose Normalized Cmax” value was 333 nM and the Tmax amounted to 102 min.
